Data as given in patent US12139488B2, “Pyrido[3,2-d]pyrimidine compounds uses thereof for treating a proliferative disease” (Universite de Montreal, priority 2021, dated 2024).
Like-named read-outs stand apart in the source and are kept apart here.

Key:
[1] = tested on: pERK in HCT-116 cells (KRAS G13D); assay: Phospho-ERK inhibition (AlphaLISA SureFire Ultra p-ERK 1/2), HCT116; type: cell-based, human; conditions: for HCT116 pERK % Ymin (lowest value of the IC50 curve): Ymin above −20% = minimal or no paradoxical activation
How it was run: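 pERK1/2 (Thr202/Tyr204) AlphaLISA, 1 h cpd, 10 conc. 10 μM→0.33 nM, 0.5% DMSO, RPMI-1640 + 5% FBS. Trametinib = 100%, DMSO = 0%. IC50, 4-param fit.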

BRAF = BRAF (Homo sapiens (Human), UniProt P15056); assay: BRAF kinase activity assay (ADP-Glo); type: biochemical
Description: (§1) Compound preparation: solid samples of each substances in 1 dram vials were suspended in DMSO (Fisher Scientific) at a stock concentration of 20 mM. Stocks were kept at −20° C. and protected from light.
(§2) In vitro enzymatic reactions were used for evaluating compounds intrinsic activity against BRAF, CRAF and ARAF. […] Separate reactions were performed with the MEK1 substrate and ATP as a blank control.
(§3) For compound treatment, 5 μL/well of test substance solution are placed in a 384-well proxyplate (Perkin Elmer) and mixed with 2× concentrated kinase reactions. The dilution series is selected so that nine concentrations cover a range from 100 nM to 0.01 nM. […] The final concentration of DMSO in the assay is set at 0.05%.
(§4) BRAF and CRAF kinase reactions were carried out for a total of 2 hours at 30° C. and then stopped by ½ dilution in ADP-Glo Reagent (cat #V9102; Promega; part V912C). Reactions were then incubated for 1h at room temperature before addition of one volume of Kinase Detection Reagent (cat #V9102; Promega; part V917A). Plates were then equilibrated at room temperature for 30 minutes before detection of luminescence on a Synergy Neo2 plate reader (Biotek). The effect of each compound dilution on BRAF and CRAF kinase activity was expressed as % inhibition and calculated as follows.
(§5) IC50 values were obtained by plotting the kinase inhibition values and fitting the dose-activity curves using a log(agonist) versus response-variable slope (four parameters) function using either GraphPadPrism (V7.0) or Dotmatics Screening Ultra platform.

CRAF = CRAF (Homo sapiens, UniProt P04049); assay: CRAF kinase activity assay (ADP-Glo); type: biochemical
Description: as §1, §2, §3, §4, §5

[2] = HCT116 cells, class symbol before the bracket
[3] = read-out: Kinase IC50 (nM) BRAF
[4] = read-out: Kinase IC50 (nM) CRAF
[5] = lowest value of the curve, HCT116, Table 5
[6] = Table 5, read-out: Kinase IC50 (nM) BRAF
[7] = Table 5, read-out: Kinase IC50 (nM) CRAF
[8] = lowest % inhibition value of the IC50 curve, HCT116
[9] = Homo sapiens, HCT-116, HCT116 cells, class symbol
[10] = first kinase column (c6), * symbols, read-out: Kinase IC50
[11] = § symbols, read-out: Kinase IC50
[12] = BRAF, read-out: Kinase IC50 (nM), BRAF biochemical kinase assay
[13] = CRAF, read-out: Kinase IC50 (nM), CRAF biochemical kinase assay

Chain of BRAF (P15056 whole entry): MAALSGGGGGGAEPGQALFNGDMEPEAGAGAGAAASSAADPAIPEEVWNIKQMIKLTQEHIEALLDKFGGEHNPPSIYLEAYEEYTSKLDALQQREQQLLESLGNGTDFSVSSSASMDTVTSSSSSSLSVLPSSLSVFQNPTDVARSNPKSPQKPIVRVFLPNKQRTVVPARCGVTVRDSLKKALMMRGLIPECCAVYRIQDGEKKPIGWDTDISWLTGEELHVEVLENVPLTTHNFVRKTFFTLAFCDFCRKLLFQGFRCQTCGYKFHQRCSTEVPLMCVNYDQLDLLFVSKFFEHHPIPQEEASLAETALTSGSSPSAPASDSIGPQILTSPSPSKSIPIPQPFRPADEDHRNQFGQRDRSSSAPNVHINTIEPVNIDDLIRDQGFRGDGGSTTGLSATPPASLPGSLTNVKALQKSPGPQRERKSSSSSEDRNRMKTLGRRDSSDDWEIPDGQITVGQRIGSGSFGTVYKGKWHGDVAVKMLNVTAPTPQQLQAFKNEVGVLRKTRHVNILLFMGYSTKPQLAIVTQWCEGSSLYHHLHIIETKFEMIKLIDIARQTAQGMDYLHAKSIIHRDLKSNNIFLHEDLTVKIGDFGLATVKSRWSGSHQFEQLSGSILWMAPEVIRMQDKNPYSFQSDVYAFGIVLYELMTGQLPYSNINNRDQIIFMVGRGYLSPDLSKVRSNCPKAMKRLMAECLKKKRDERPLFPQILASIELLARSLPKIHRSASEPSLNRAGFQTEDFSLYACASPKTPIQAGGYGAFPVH
Chain of CRAF (P04049 whole entry, looked up): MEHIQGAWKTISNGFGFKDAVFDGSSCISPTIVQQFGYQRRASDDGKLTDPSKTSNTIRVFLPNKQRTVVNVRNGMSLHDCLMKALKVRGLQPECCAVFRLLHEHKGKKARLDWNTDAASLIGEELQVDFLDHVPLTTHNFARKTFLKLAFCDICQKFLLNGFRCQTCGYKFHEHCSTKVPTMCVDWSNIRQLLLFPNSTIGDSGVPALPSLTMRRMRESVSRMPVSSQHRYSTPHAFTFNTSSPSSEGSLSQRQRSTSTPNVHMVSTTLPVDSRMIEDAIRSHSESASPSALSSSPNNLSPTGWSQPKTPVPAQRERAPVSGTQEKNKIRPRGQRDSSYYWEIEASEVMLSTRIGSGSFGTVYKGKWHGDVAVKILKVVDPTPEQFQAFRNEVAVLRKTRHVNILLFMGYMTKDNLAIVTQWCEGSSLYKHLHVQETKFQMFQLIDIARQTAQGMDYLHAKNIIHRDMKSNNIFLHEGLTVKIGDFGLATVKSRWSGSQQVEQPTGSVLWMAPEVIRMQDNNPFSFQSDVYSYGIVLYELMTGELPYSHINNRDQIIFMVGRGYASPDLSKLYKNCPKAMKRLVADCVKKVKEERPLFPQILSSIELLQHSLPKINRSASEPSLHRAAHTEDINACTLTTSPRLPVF

SMILES | IC50 (BRAF; [3]) [nM] | IC50 (CRAF; [4]) [nM] | IC50 ([1]; HCT116 cells) [nM] | HCT116 pERK % Ymin (lowest value of the IC50 curve) ([1]; HCT116 cells) [%] | IC50 (BRAF; [12]) [nM] | IC50 (CRAF; [13]) [nM] | also measured
O=C(Nc1cccc2c1ncn2-c1ccc2ncnc(Nc3c(F)ccc(NS(=O)(=O)c4ccccc4Cl)c3F)c2n1)N1CCOCC1 [Example 149] | 1 to 10 | 10 to 50 |  |  |  |  | HCT116 pERK Ymin % ([1]; HCT116 cells, Ymin in brackets): 8.5%; IC50 [1, 2]: 500 to 1000 nM
O=S(=O)(Nc1ccc(F)c(Nc2ncnc3ccc(-n4cc(-c5ncc[nH]5)c5ccccc54)nc23)c1F)c1cccc(Cl)c1Cl [Example 207] | 1 to 10 | 10 to 50 |  |  |  |  | HCT116 pERK Ymin % ([1]; HCT116 cells, Ymin in brackets): −11%; IC50 [1, 2]: 1000 to 10000 nM
O=S(=O)(Nc1ccc(F)c(Nc2ncnc3ccc(-n4nc(-c5nnc(O)o5)c5ccccc54)nc23)c1F)c1cccc(Cl)c1Cl [Example 208] | 1 to 10 | < 10 |  |  |  |  | HCT116 pERK Ymin % ([1]; HCT116 cells, Ymin in brackets): −4%; IC50 [1, 2]: 1000 to 10000 nM
CN(C)c1nnc(-c2nn(-c3ccc4ncnc(Nc5c(F)ccc(NS(=O)(=O)c6cccc(Cl)c6Cl)c5F)c4n3)c3ccccc23)o1 [Example 209] | 1 to 10 | 10 to 50 |  |  |  |  | HCT116 pERK Ymin % ([1]; HCT116 cells, Ymin in brackets): −6%; IC50 [1, 2]: 10000 to 30000 nM
O=S(=O)(Nc1ccc(F)c(Nc2ncnc3ccc(-n4nc(-c5ncc[nH]5)c5ccccc54)nc23)c1F)c1cccc(Cl)c1Cl [Example 212] | 1 to 10 | > 50 |  |  |  |  | HCT116 pERK Ymin % ([1]; HCT116 cells, Ymin in brackets): −13%; IC50 [1, 2]: 1000 to 10000 nM
O=S(=O)(Nc1ccc(F)c(Nc2ncnc3ccc(-n4nc(-c5ncc[nH]5)c5ccccc54)nc23)c1F)c1ccccc1Cl [Example 213] | 1 to 10 | > 50 |  |  |  |  | HCT116 pERK Ymin % ([1]; HCT116 cells, Ymin in brackets): −8%; IC50 [1, 2]: 1000 to 10000 nM
NCC(=O)c1cn(-c2ccc3ncnc(Nc4c(F)ccc(NS(=O)(=O)c5ccccc5Cl)c4F)c3n2)c2ccccc12 [Example 223] | 1 to 10 | > 50 |  |  |  |  | HCT116 pERK Ymin % ([1]; HCT116 cells, Ymin in brackets): −9%; IC50 [1, 2]: 1000 to 10000 nM
COc1ccc(S(=O)(=O)Nc2ccc(F)c(Nc3ncnc4ccc(-n5cnc6ccccc65)nc34)c2Cl)cc1 [Example 239] |  |  |  |  |  |  | IC50 ([1]; HCT116 cells, Table 5): 1000 to 10000 nM; HCT116 pERK Ymin % [1, 5]: 6.7%; IC50 (BRAF; [6]): > 10 nM; IC50 (CRAF; [7]): > 50 nM
O=S(=O)(Nc1ccc(F)c(Nc2ncnc3ccc(-n4cnc5c(-c6cccnc6)cccc54)nc23)c1F)c1ccccc1Cl [Example 243] | 1 to 10 | < 10 |  |  |  |  | HCT116 pERK Ymin % ([1]; HCT116 cells, Ymin in brackets): −3.9%; IC50 [1, 2]: < 500 nM
Cc1c(Cl)csc1S(=O)(=O)Nc1ccc(F)c(Nc2ncnc3ccc(-n4cnc5ccccc54)nc23)c1F [Example 315] | 1 to 10 | < 10 |  |  |  |  | IC50 ([1]; HCT116 cells, 1 h treatment): < 500 nM; HCT116 pERK Ymin % [1, 8]: −12%
Cc1csc(S(=O)(=O)Nc2ccc(F)c(Nc3ncnc4ccc(-n5cnc6ccccc65)nc34)c2F)c1Cl [Example 316, N-(3-((6-(1H-benzo[d]imidazol-1-yl)pyrido[3,2-d]pyrimidin-4-yl)amino)-2,4-difluorophenyl)-3-chloro-4-methylthiophene-2-sulfonamide] | < 1 | < 10 |  |  |  |  | IC50 ([1]; Homo sapiens, HCT-116, HCT116 cells, 1 h treatment): 500 to 1000 nM; HCT116 pERK Ymin % [1, 8]: −5%
Cc1scc(S(=O)(=O)Nc2ccc(F)c(Nc3ncnc4ccc(-n5cnc6ccccc65)nc34)c2F)c1C [Example 320] | 1 to 10 | > 50 |  |  |  |  | IC50 ([1]; HCT116 cells, 1 h treatment): 1000 to 10000 nM; HCT116 pERK Ymin % [1, 8]: −5%
Cc1c(F)cccc1S(=O)(=O)Nc1ccc(F)c(Nc2ncnc3ccc(-n4cnc(/C=C/C#N)c4)nc23)c1F [Example 343, (E)-N-(3-((6-(4-(2-cyanovinyl)-1H-imidazol-1-yl)pyrido[3,2-d]pyrimidin-4-yl)amino)-2,4-difluorophenyl)-3-fluoro-2-methylbenzenesulfonamide] |  |  |  |  |  |  | IC50 [1, 9]: < 500 nM; IC50 (BRAF; [10]): 1 to 10 nM; IC50 (CRAF; [11]): 10 to 50 nM
Cc1c(F)cccc1S(=O)(=O)Nc1ccc(F)c(Nc2ncnc3ccc(-n4cnc5c(CO)cccc54)nc23)c1F [Example 345, N-[2,4-difluoro-3-[[6-[4-(hydroxymethyl)benzimidazol-1-yl]pyrido[3,2-d]pyrimidin-4-yl]amino]phenyl]-3-fluoro-2-methyl-benzenesulfonamide] |  |  |  |  |  |  | IC50 [1, 9]: < 500 nM; IC50 (BRAF; [10]): 1 to 10 nM; IC50 (CRAF; [11]): < 10 nM
CC(=O)N1CCCc2nn(-c3ccc4ncnc(Nc5c(F)ccc(NS(=O)(=O)c6cccc(Cl)c6Cl)c5F)c4n3)cc21 [Example 486] |  |  |  |  |  |  | IC50 [1, 9]: 500 to 1000 nM; IC50 (BRAF; [10]): 1 to 10 nM; IC50 (CRAF; [11]): < 10 nM
O=S(=O)(Nc1ccc(F)c(Nc2ncnc3ccc(-c4cnc5n4CCCC5)nc23)c1F)c1cccc(Cl)c1Cl [Example 561] |  |  | < 500 | −13 | 1 to 10 | < 10 | 
O=S(=O)(Nc1ccc(F)c(Nc2ncnc3ccc(-n4cnc5nccnc54)nc23)c1F)c1cccc(Cl)c1Cl [Example 573] |  |  | 1000 to 10000 | −1 | > 10 | > 50 | 
Cc1ncc(-c2ccc3ncnc(Nc4c(F)ccc(NS(=O)(=O)c5cccc(Cl)c5Cl)c4F)c3n2)[nH]1 [Example 595] |  |  | 1000 to 10000 | −16 | 1 to 10 | 10 to 50 | 
N#CC1(c2cccc3c2nnn3-c2ccc3ncnc(Nc4c(F)ccc(NS(=O)(=O)c5cccc(Cl)c5Cl)c4F)c3n2)CC1 [Example 610] |  |  | < 500 | −2 | 1 to 10 | < 10 | 
O=S(=O)(Nc1ccc(F)c(Nc2ncnc3ccc(-n4cnc5c(C6(CO)CC6)cccc54)nc23)c1F)c1cccc(Cl)c1Cl [Example 612] |  |  | < 500 | −10 | 1 to 10 | < 10 | 
CN1CCN(c2ncc(-c3ccc4ncnc(Nc5c(F)ccc(NS(=O)(=O)c6cccc(Cl)c6Cl)c5F)c4n3)s2)CC1 [Example 613] |  |  | 500 to 1000 | −3 | 1 to 10 | 10 to 50 | 
O=S(=O)(Nc1ccc(F)c(Nc2ncnc3ccc(-n4cnc5c(N6C7CCC6CN(CCO)C7)cccc54)nc23)c1F)c1cccc(Cl)c1Cl [Example 629] |  |  |  | −2 | 1 to 10 | 10 to 50 | 
O=S(=O)(Nc1ccc(F)c(Nc2ncnc3ccc(-c4cnc(N5CCOCC5)s4)nc23)c1F)c1cccc(Cl)c1Cl [Example 631] |  |  | < 500 | 0 | > 10 | 10 to 50 | 
O=S(=O)(Nc1ccc(F)c(Nc2ncnc3ccc(-n4cnc5c(N6CCNCC6)cccc54)nc23)c1F)c1cccc(Cl)c1Cl [Example 634] |  |  | < 500 | −2 | < 1 | < 10 | 
O=S(=O)(Nc1cccc(Nc2ncnc3ccc(-n4cnc5ccccc54)nc23)c1F)c1cccc(Cl)c1Cl [Example 646] |  |  |  |  |  |  | IC50 ([1]; HCT116 cells, Table 5): < 500 nM; HCT116 pERK Ymin % [1, 5]: −3%; IC50 (BRAF; [6]): 1 to 10 nM; IC50 (CRAF; [7]): 10 to 50 nM
O=S(=O)(Nc1cc(F)c(F)c(Nc2ncnc3ccc(-n4cnc5ccccc54)nc23)c1F)c1cccc(Cl)c1Cl [Example 648] |  |  |  |  |  |  | IC50 ([1]; HCT116 cells, Table 5): < 500 nM; HCT116 pERK Ymin % [1, 5]: −1%; IC50 (BRAF; [6]): 1 to 10 nM; IC50 (CRAF; [7]): < 10 nM
O=S(=O)(Nc1cc(F)c(F)c(Nc2ncnc3ccc(-n4nnc5ccccc54)nc23)c1F)c1cccc(Cl)c1Cl [Example 649] |  |  |  |  |  |  | IC50 ([1]; HCT116 cells, Table 5): < 500 nM; HCT116 pERK Ymin % [1, 5]: 3%; IC50 (BRAF; [6]): 1 to 10 nM; IC50 (CRAF; [7]): < 10 nM
O=S(=O)(Nc1ccc(F)c(Nc2ncnc3ccc(-n4cnc5ccccc54)nc23)c1F)c1ccc(C(F)(F)F)cc1Cl [Example 653] | > 10 | > 50 |  |  |  |  | IC50 ([1]; HCT116 cells, 1 h treatment): 1000 to 10000 nM; HCT116 pERK Ymin % [1, 8]: −13%
O=S(=O)(Nc1ccc(F)c(Nc2ncnc3ccc(-n4cnc5c(C6CCNCC6)cccc54)nc23)c1F)c1cccc(Cl)c1Cl [Example 662, 2,3-dichloro-N-[2,4-difluoro-3-[[6-[4-(4-piperidyl)benzimidazol-1-yl]pyrido[3,2-d]pyrimidin-4-yl]amino]phenyl]benzenesulfonamide] |  |  |  | −6 | < 1 |  | IC50 ([1]; Homo sapiens, HCT-116, HCT116 cells): 1000 to 10000 nM; IC50 (CRAF): < 10 nM
Cc1c(F)cccc1S(=O)(=O)Nc1ccc(F)c(Nc2ncnc3ccc(-n4ncc5c4CN(C)CC5)nc23)c1F [Example 664] |  |  | 1000 to 10000 | −15 | 1 to 10 | > 50 | 
